These are literature values, as cited in US20110159118A1, “Screening Method (Metabolite Grid) for Therapeutic Extracts and Molecules for Diabetes” (priority 2000, published 2011).

One series concerns hyperglycemic rats. The settings on record: effect comparable to metformin.
The test system of series [1] is streptozotocin-diabetic mice. Conditions: doses of 3.4-13.4 mg/kg, 6 h after the administration.

On to `COc1cc(O)cc2c1C(=O)C(O)(Cc1ccc(O)cc1)O2` (stereo not shown) [Marsupsin, marsupsin], for which the blood glucose level result in the series on hyperglycemic rats is “significantly lowered”.

Take gymnemic acid IV [Gymnemic acids]: the “reduced the blood glucose levels” value in series [1] is recorded as 13.5-60.0%.

In the case of `Oc1cc(O)c2c(c1)O[C@H](c1ccc(O)c(O)c1)[C@H](O)C2` [(−)-Epicatechin, (−)-epicatechin], the “blood glucose levels, control versus treated rats” value in the series on alloxan diabetic rats (30 mg/kg, i.p., twice daily for 3 days, begun 92 hr after alloxan) was “no significant difference”. For the same compound, the hyperglycemia entry in the series with alloxan diabetic rats (given before or within 24 hr after the dose of alloxan) is given as “reverse hyperglycemia”.
